In patent US20200278355A1, “CONJUGATED PROTEINS AND USES THEREOF” (THE SCRIPPS RESEARCH INSTITUTE, priority 2017, published 2020):

Target: T1, TXN (Homo sapiens, UniProt P10599)
T1 construct: H460 cells or H460 cells expressing luciferase in a 10 cm plate were incubated with indicated compounds; endogenous in cells; host or cells: H460
Assay: isoTOP-ABPP of compound-treated H460 cells: TXN
Format: cell-based
Conditions: TXN C35; 40 μM
Description: For analysis of NR0B1 ligands or control compound reactivity, H460 cells or H460 cells expressing luciferase in a 10 cm plate were incubated with indicated compounds in serum/dye-free RPMI for 3 hours at 37° C. Cells were washed once ice-cold PBS and lysed in 1% Triton X-100 dissolved in PBS with protease inhibitors (Sigma) by sonication. Samples were clarified by centrifugation for 10 min at 16,000×g. Lysate was adjusted to 1.5 mg ml^−1 in 500 μL.
Samples were labeled for 1 h at ambient temperature with 100 μM iodoacetamide alkyne (1, IA-alkyne, 5 μL of 10 mM stock in DMSO). Samples were conjugated by copper-catalyzed azide-alkyne cycloaddition (CuAAC) to isotopically labeled, TEV-cleavable tags (TEV-tags). Heavy CuAAC reaction mixtures was added to the DMSO-treated or shGFP control samples and light CuAAC reaction mixture was added to compound-treated or shNRF2 samples. The CuAAC reaction mixture consisted of TEV tags (light or heavy, 10 μL of 5 mM stocks in DMSO, final concentration=100 μM), 1 mM tris(2-carboxyethyl)phosphine hydrochloride (TCEP; fresh 50× stock in water, final concentration=1 mM), ligand (17× stock in DMSO:t-butanol 1:4, final concentration=100 μM) and 1 mM CuSO4 (50× stock in water, final concentration=1 mM). The samples were allowed to react for 1 h at which point the samples were centrifuged (16,000×g, 5 min, 4° C.). […]

T1 sequence (P10599 whole entry): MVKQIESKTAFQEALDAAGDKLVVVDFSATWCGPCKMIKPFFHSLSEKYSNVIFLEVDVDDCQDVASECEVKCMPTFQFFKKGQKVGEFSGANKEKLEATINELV

Structure (SMILES): O=C(c1ccc(N2CCOCC2)cc1)N1CCCC(N(Cc2ccccc2)C(=O)CCl)CC1 (stereo not shown) [BPK-29, N-benzyl-2-chloro-N-(1-(4-morpholinobenzoyl)azepan-4-yl)acetamide]
- BPK-29-competed isoTOP-ABPP analysis: Yes (Competed defined as showing R value ≥ 3.0 at 40 μM of test compound)
